Results published in PMC6949113, “Preclinical evaluation of AT-527, a novel guanosine nucleotide prodrug with potent, pan-genotypic activity against hepatitis C virus” (PLoS ONE, 2020).

What was measured:
Huh-7 cells = test: Intracellular metabolism in Huh-7 replicon cells; assay type: in vitro ADME, human
Protocol: Huh-7 replicon cells. […] At each time point, the media was removed and the cells were washed twice with cold PBS, collected in 1 mL cold 60% MeOH, and extracted overnight at -20°C with internal standard added. […] Untreated cells were collected at each time point as a negative control.
S3 Protocol. LC-MS/MS analysis of AT-511 and metabolites in cultured cells. The supernatant extracts of each hepatocyte and Huh-7 cell incubation were separately analyzed by four different LC-MS/MS methods for quantitation of phosphoramidates, nucleosides, monophosphates, and triphosphates (methods 1, 2, 3 and 4, respectively), using synthetic reference standards of actually and potentially present compounds and using structurally related analogs as internal standards. Briefly, a Luna PFP (2), 5 µm, 100 x 4.6 mm column and an AB Sciex API-6500 mass spectrometer (ESI positive ion, MRM mode) were used for methods 1-3 and an XBridge Oligonucleotide, BEH C18, 2.5 µm, 50 x 2.1 mm column and a Thermo QE Plus mass spectrometer (electrospray, negative ion mode) were used for method 4. For methods 1 and 2, mobile phases A (10 mM ammonium acetate in water) and B (acetonitrile:methanol, 1:1, v/v) were used to elute samples (5 µL) at 1 mL/min with 15% B for 1.5 min followed by a linear gradient to 75% B over 1 min (method 1) or with 54% B for 1.3 min followed by a linear gradient to 90% B over 1.2 min. […]

[1] = AT-9010 half-life in human hepatocytes (washout); assay type: in vitro ADME; details: both sexes, plated cryopreserved human hepatocytes, 100 μM AT-511 for 6 h, washout 30 h
Protocol: (§1) Hepatocytes. […] Cryopreserved male mouse (CD1), and fresh male Beagle dog and male cynomolgus monkey hepatocytes were obtained from BioreclamationIVT (Baltimore, MD) and were similarly plated with Matrigel in 6- or 24-well plates and maintained overnight in InVitroGRO™HI medium with Torpedo™ antibiotic (BioreclamationIVT). The protocol described above for measuring AT-511 and its metabolites in Huh-7 cells was repeated with the five different hepatocytes. Untreated cells were collected at 24 h, and the protein content of the cell lysates were determined using a bicinchoninic acid protein assay kit to assess the number of cells in each incubation. Separately, plated human hepatocytes were incubated for 6 h with 100 μM AT-511, followed by washout periods of 0, 2, 6, 18 and 30 h.
(§2) S3 Protocol. LC-MS/MS analysis of AT-511 and metabolites in cultured cells. The supernatant extracts of each hepatocyte and Huh-7 cell incubation were separately analyzed by four different LC-MS/MS methods for quantitation of phosphoramidates, nucleosides, monophosphates, and triphosphates (methods 1, 2, 3 and 4, respectively), using synthetic reference standards of actually and potentially present compounds and using structurally related analogs as internal standards. […]

[2] = biological target: human mitochondrial RNA polymerase (POLRMT) (Homo sapiens, UniProt O00411); test: POLRMT nucleotide incorporation assay; assay type: biochemical
Chain of human mitochondrial RNA polymerase (POLRMT) (O00411 42-1230): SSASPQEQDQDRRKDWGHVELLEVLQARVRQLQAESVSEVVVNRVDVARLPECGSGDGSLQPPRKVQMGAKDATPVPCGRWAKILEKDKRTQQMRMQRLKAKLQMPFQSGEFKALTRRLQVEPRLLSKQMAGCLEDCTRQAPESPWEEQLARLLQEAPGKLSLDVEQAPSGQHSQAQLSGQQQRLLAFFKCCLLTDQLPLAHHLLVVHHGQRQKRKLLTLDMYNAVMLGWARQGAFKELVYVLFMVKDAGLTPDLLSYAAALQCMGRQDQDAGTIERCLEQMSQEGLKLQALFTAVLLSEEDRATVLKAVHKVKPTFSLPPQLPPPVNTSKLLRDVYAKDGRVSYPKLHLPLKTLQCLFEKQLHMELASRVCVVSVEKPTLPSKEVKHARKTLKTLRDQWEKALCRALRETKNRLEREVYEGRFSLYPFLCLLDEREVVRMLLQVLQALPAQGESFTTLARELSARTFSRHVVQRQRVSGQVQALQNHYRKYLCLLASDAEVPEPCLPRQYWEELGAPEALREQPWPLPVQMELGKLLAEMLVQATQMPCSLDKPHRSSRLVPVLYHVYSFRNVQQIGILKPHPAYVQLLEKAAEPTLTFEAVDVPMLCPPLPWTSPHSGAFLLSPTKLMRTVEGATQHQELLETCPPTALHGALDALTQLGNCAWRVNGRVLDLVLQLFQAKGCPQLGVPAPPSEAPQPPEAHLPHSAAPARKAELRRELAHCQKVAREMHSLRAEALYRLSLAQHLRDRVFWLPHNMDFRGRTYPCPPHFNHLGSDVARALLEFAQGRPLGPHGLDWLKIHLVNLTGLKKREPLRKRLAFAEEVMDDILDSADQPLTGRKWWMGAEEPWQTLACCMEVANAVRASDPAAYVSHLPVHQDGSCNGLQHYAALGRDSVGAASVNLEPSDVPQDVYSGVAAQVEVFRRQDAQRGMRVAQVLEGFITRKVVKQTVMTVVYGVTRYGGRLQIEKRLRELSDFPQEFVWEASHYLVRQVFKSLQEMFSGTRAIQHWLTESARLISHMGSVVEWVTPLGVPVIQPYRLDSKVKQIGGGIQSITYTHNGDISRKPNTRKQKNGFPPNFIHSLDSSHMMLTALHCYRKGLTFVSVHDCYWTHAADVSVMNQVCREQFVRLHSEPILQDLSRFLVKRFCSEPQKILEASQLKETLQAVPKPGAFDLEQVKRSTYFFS

[3] = Intracellular metabolism in monkey hepatocytes; assay type: in vitro ADME, cynomolgus monkey
Protocol: as §1, §2

[4] = biological target: T1, HCV NS5B polymerase (RdRp) (Hepatitis C virus genotype 1b, UniProt Q9WMX2); test: HCV NS5B polymerase (RdRp) assay; assay type: biochemical
T1 construct: HCV NS5B polymerase (RdRp) assay
T1 sequence (Q9WMX2 2420-3010): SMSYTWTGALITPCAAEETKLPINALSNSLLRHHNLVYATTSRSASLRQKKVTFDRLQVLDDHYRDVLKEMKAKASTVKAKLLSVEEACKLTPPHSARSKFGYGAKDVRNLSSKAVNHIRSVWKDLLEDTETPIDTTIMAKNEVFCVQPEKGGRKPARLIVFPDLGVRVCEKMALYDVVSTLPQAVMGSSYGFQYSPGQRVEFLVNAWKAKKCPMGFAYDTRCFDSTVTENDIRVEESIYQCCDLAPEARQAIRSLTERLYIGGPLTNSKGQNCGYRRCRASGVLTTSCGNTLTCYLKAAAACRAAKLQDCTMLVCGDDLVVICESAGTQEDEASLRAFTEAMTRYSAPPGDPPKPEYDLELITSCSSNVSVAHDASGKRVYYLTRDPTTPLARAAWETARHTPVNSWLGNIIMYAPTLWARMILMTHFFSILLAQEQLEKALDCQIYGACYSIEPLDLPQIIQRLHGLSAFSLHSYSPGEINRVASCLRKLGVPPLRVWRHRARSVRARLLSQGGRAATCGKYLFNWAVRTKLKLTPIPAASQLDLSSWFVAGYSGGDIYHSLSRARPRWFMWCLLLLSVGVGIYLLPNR
Protocol: RdRp activity was determined by the incorporation of radiolabeled ribonucleotide into synthesized RNA. […] HCV796 (Southern Research, Frederick, MD) was used as positive control for the assay.

## C[C@@]1(F)[C@H](O)[C@@H](COP(=O)(O)OP(=O)(O)OP(=O)(O)O)O[C@H]1n1cnc2c(=O)[nH]c(N)nc21 [AT-9010]
Huh-7 cells; 10 μM AT-511
  AUC0-24, intracellular: 5051 pmol*h/10^6 cells
Huh-7 cells; 10 μM AT-511, 0-24 h
  Cmax, intracellular: 420.3 ± 161.4 pmol/10^6 cells
[1]
  half-life at 100 μM: 600 min
[2]; (kpol/Kd,app)incorrect/(kpol/Kd,app)correct
  Relative efficiency: 2.2 x 10^−6
[2]; POLRMT-catalyzed nucleotide incorporation, read-out: Kd,app
  Kd: 204 ± 94 µM
[2]; efficiency of incorporation
  kpol/Kd, app: 8.3 ± 4.0 x 10^−6 μM^-1s^-1
[3]; 10 μM AT-511
  AUC0-24, intracellular: 195 pmol*h/10^6 cells
[3]; 10 μM AT-511, 0-24 h
  Cmax, intracellular: 10.4 ± 0.2 pmol/10^6 cells
[4]; as a competitive inhibitor of ATP, single assay
  IC50: 40.3 µM
[4]; as an alternate substrate for GTP, mean of two assays
  IC50: 0.15 µM
